According to PubChem BioAssay AID248 (DTP/NCI, 2004):
Several values for one entry are separate records, joined by “and”; a condition that tells them apart may be missing. Equal entries are not always repeated. Toxic doses and inconclusive results are not listed. No stated cut-off is given here; in the data, active means T/C of 150% or more; inactive means T/C below 125%.

System: L1210 leukemia ip in BDF1 mice, survival T/C
Assay: NCI In Vivo Anticancer Drug Screen. Data for tumor model L1210 Leukemia (intraperitoneal) in B6D2F1 (BDF1) mice
Details: endpoint: mean survival time, higher = longer survival
Outline: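 Transplanted-tumor mice were given test agent; controls received vehicle only. Survival readings from the two groups were divided (treated over control).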

[1] = dose: 100.0 mg/kg/injection, schedule: Q01DX009 (ip), vehicle: Klucel (hydroxypropylcellulose) (HPC)
[2] = dose: 100.0 mg/kg/injection, schedule: Q04DX003 (ip), vehicle: Klucel (hydroxypropylcellulose) (HPC)
[3] = dose: 200.0 mg/kg/injection, schedule: Q01DX009 (ip), vehicle: Klucel (hydroxypropylcellulose) (HPC)
[4] = dose: 200.0 mg/kg/injection, schedule: Q04DX003 (ip), vehicle: Klucel (hydroxypropylcellulose) (HPC)
[5] = dose: 400.0 mg/kg/injection, schedule: Q01DX009 (ip), vehicle: Klucel (hydroxypropylcellulose) (HPC)
[6] = dose: 400.0 mg/kg/injection, schedule: Q04DX003 (ip), vehicle: Klucel (hydroxypropylcellulose) (HPC)
[7] = dose: 100.0 mg/kg/injection, schedule: Q01DX001 (ip), vehicle: saline
[8] = dose: 200.0 mg/kg/injection, schedule: Q01DX001 (ip), vehicle: saline
[9] = dose: 400.0 mg/kg/injection, schedule: Q01DX001 (ip), vehicle: saline
[10] = dose: 100.0 mg/kg/injection, schedule: Q04DX003 (ip), vehicle: saline with Tween-80
[11] = dose: 100.0 mg/kg/injection, schedule: Q01DX001 (ip), vehicle: other
[12] = dose: 200.0 mg/kg/injection, schedule: Q01DX001 (ip), vehicle: other
[13] = dose: 400.0 mg/kg/injection, schedule: Q01DX001 (ip), vehicle: other
[14] = dose: 100.0 mg/kg/injection, schedule: Q04DX003 (ip), vehicle: saline
[15] = dose: 200.0 mg/kg/injection, schedule: Q04DX003 (ip), vehicle: saline
[16] = dose: 400.0 mg/kg/injection, schedule: Q04DX003 (ip), vehicle: saline
[17] = dose: 25.0 mg/kg/injection, schedule: Q01DX009 (ip), vehicle: Klucel (hydroxypropylcellulose) (HPC)
[18] = dose: 50.0 mg/kg/injection, schedule: Q01DX009 (ip), vehicle: Klucel (hydroxypropylcellulose) (HPC)
[19] = dose: 200.0 mg/kg/injection, schedule: Q04DX003 (ip), vehicle: saline with Tween-80
[20] = dose: 400.0 mg/kg/injection, schedule: Q04DX003 (ip), vehicle: saline with Tween-80

Measured: T/C

O=C(Nc1cccc2c(NC(=O)c3ccccc3)cccc12)c1ccccc1
inactive: dose: 100.0 mg/kg/injection, schedule: Q01DX001 (ip), vehicle: saline with Tween-80 92 % of control | dose: 200.0 mg/kg/injection, schedule: Q01DX001 (ip), vehicle: saline with Tween-80 91 % of control | dose: 400.0 mg/kg/injection, schedule: Q01DX001 (ip), vehicle: saline with Tween-80 89 % of control

CCOCCOCCOC(C)Oc1ccccc1OC (configuration not stated)
inactive: dose: 100.0 mg/kg/injection, schedule: Q04DX002 (ip), vehicle: saline 111 % of control | dose: 200.0 mg/kg/injection, schedule: Q04DX002 (ip), vehicle: saline 96 % of control | dose: 400.0 mg/kg/injection, schedule: Q04DX002 (ip), vehicle: saline 114 % of control

COc1ccc(N2C=C(c3ccccc3)CC2=O)cc1
inactive: dose: 100.0 mg/kg/injection, schedule: Q04DX002 (ip), vehicle: Klucel (hydroxypropylcellulose) (HPC) 94 % of control | dose: 200.0 mg/kg/injection, schedule: Q04DX002 (ip), vehicle: Klucel (hydroxypropylcellulose) (HPC) 94 % of control | dose: 400.0 mg/kg/injection, schedule: Q04DX002 (ip), vehicle: Klucel (hydroxypropylcellulose) (HPC) 97 % of control

O=C(Nc1cccc(C2=NCC(O)CN2)c1)c1ccc(C(=O)Nc2cccc(C3=NCC(O)CN3)c2)c(Cl)c1 (configuration not stated)
inactive: dose: 6.25 mg/kg/injection, schedule: Q01DX Z (ip), vehicle: water 95 % of control

CSc1ccc(NC(=O)Nc2cccc(O)c2)cc1
inactive: [1] 101 % of control | [2] 101 % of control | [3] 103 % of control | [4] 106 % of control | [5] 101 % of control | [6] 98 % of control

CC(=O)OC1COC(n2cnc3c(N4CCCCC4)ncnc32)C(OC(C)=O)C1OC(C)=O (configuration not stated)
inactive: [7] 100 % of control | [8] 96 % of control | [9] 96 % of control

O=C(Nc1cccc2ccccc12)c1ccc(Cl)c(Cl)c1
inactive: [1] 104 % of control | [3] 100 % of control | [5] 98 % of control

CC1CN(C2CC3OCC3O2)C(=O)NC1=O (configuration not stated)
inactive: [7] 103 % of control | [8] 98 % of control | [9] 98 % of control

CC(=O)NC1C(OS(=O)(=O)c2ccc(C)cc2)C(NC(C)=O)C(OC(C)=O)C(OC(C)=O)C1OC(C)=O (configuration not stated)
inactive: dose: 100.0 mg/kg/injection, schedule: Q01DX009 (ip), vehicle: saline with Tween-80 102 % of control | dose: 200.0 mg/kg/injection, schedule: Q01DX009 (ip), vehicle: saline with Tween-80 109 % of control | dose: 400.0 mg/kg/injection, schedule: Q01DX009 (ip), vehicle: saline with Tween-80 100 % of control

CC(=O)Nc1ncccc1C
inactive: dose: 5.0 mg/kg/injection, schedule: Q01DX001 (ip), vehicle: saline 94 % of control | dose: 10.0 mg/kg/injection, schedule: Q01DX001 (ip), vehicle: saline 96 % of control | dose: 20.0 mg/kg/injection, schedule: Q01DX001 (ip), vehicle: saline 101 % of control | dose: 40.0 mg/kg/injection, schedule: Q01DX001 (ip), vehicle: saline 100 % of control

CC[As](=O)(O)c1ccccc1
inactive: dose: 6.25 mg/kg/injection, schedule: Q01DX009 (ip), vehicle: saline 89 % of control | dose: 12.5 mg/kg/injection, schedule: Q01DX009 (ip), vehicle: saline 89 % of control

CC(=O)N1CCCC1=O
inactive: [1] 100 % of control | [2] 96 % of control | [3] 100 % of control | [4] 102 % of control | [5] 95 % of control | [6] 102 % of control

COc1nc2ccccc2c2ccccc12
inactive: [11] 105 % of control | [12] 102 % of control | [13] 107 % of control

CCOC(=O)/C=C/C(=O)O.[Fe]
inactive: [14] 101 % of control | [15] 95 % of control | [16] 101 % of control

Cn1c(N)c(N=Cc2ccncc2)c(=O)n(C)c1=O
inactive: dose: 50.0 mg/kg/injection, schedule: Q01DX001 (ip), vehicle: other 103 % of control | [11] 92 % of control | [12] 94 % of control | [13] 97 % of control

O=C(N/N=C/c1ccc(Cl)cc1)c1cccc([N+](=O)[O-])c1
inactive: [1] 94 % of control | [3] 94 % of control | [5] 95 % of control

O=C(NNc1ccccc1)OCCCl
inactive: dose: 12.5 mg/kg/injection, schedule: Q01DX009 (ip), vehicle: Klucel (hydroxypropylcellulose) (HPC) 95 % of control | [17] 101 % of control | [18] 107 % of control

Cc1ccccc1[P+](Cc1ccccc1)(c1ccccc1)c1ccccc1C
inactive: dose: 15.0 mg/kg/injection, schedule: Q01DX001 (ip), vehicle: saline 104 % of control

Cc1ccc(S(=O)(=O)C=C(c2ccccc2)c2ccccc2)cc1
inactive: dose: 100.0 mg/kg/injection, schedule: Q01DX001 (ip), vehicle: Klucel (hydroxypropylcellulose) (HPC) 98 % of control | [2] 100 % of control | dose: 200.0 mg/kg/injection, schedule: Q01DX001 (ip), vehicle: Klucel (hydroxypropylcellulose) (HPC) 96 % of control | [4] 95 % of control | dose: 400.0 mg/kg/injection, schedule: Q01DX001 (ip), vehicle: Klucel (hydroxypropylcellulose) (HPC) 104 % of control | [6] 95 % of control

O=C(O)C1=C(C(=O)O)C2CCC1C2
inactive: [10] 100 % of control | [19] 88 % of control

CNc1ccc(/C=N/CCl)cc1
inactive: [10] 92 % of control | [19] 91 % of control | [20] 96 % of control

CCCC(=O)Nc1ccc(N=Nc2ccccc2)cc1
inactive: [17] 100 % of control | [18] 92 % of control | [1] 94 % of control and 96 % of control | [3] 95 % of control

CCC1(/C=C/C(C)C)C(=O)NC(=O)NC1=O
inactive: dose: 75.0 mg/kg/injection, schedule: Q01DX001 (ip), vehicle: saline 105 % of control | dose: 150.0 mg/kg/injection, schedule: Q01DX001 (ip), vehicle: saline 93 % of control

OCCN1CCNCC1
inactive: [7] 105 % of control | [8] 105 % of control | [9] 100 % of control

NN(C(=O)c1ccccc1)C1CCCCC1
inactive: [10] 104 % of control | [19] 96 % of control | [20] 96 % of control

CN(CC(C)(C)C=O)C(=O)c1ccccc1
inactive: [14] 96 % of control | [15] 103 % of control | [16] 100 % of control

CC1(C)Cc2cccc(Br)c2O1
inactive: [11] 98 % of control | [12] 103 % of control | [13] 97 % of control

COc1cc(CC#N)ccc1C
inactive: dose: 12.5 mg/kg/injection, schedule: Q01DX009 (ip), vehicle: alcohol 104 % of control | dose: 25.0 mg/kg/injection, schedule: Q01DX009 (ip), vehicle: alcohol 98 % of control | dose: 50.0 mg/kg/injection, schedule: Q01DX009 (ip), vehicle: alcohol 101 % of control
